Read-outs that look alike come from different tables or passages of the source.
Columns and labels:
[1] = tested on: LN-229 glioblastoma cells; assay: Antiproliferative screening, MTS cell viability assay; assay type: cell-based; settings: Homo sapiens
[2] = tested on: Capan-1 pancreatic adenocarcinoma cells; assay: as above; assay type: cell-based; settings: Homo sapiens
[3] = tested on: HCT-116 colorectal carcinoma cells; assay: as above; assay type: cell-based; settings: Homo sapiens
[4] = tested on: NCI-H460 lung carcinoma cells; assay: as above; assay type: cell-based; settings: Homo sapiens
[5] = tested on: DND-41 acute lymphoblastic leukemia cells; assay: Antiproliferative screening, IncuCyte cell growth; assay type: cell-based; settings: Homo sapiens
[6] = tested on: HL-60 acute myeloid leukemia cells; assay: Antiproliferative screening, IncuCyte cell growth; assay type: cell-based; settings: Homo sapiens
[7] = tested on: K-562 chronic myeloid leukemia cells; assay: Antiproliferative screening, IncuCyte cell growth; assay type: cell-based; settings: Homo sapiens
[8] = tested on: Z-138 non-Hodgkin lymphoma cells; assay: Antiproliferative screening, IncuCyte cell growth; assay type: cell-based; settings: Homo sapiens
[9] = tested on: HEL 299 normal human lung fibroblasts; assay: Antiproliferative screening on noncancerous cells; settings: for IC50: Homo sapiens, HEL 299, read-out: IC50 HEL 299; for Cytotoxicity against noncancerous cells in words: HEL 299
in vitro = settings: human
[10] = LN-229, 72 h, read-out: IC50 LN-229
[11] = CAPAN-1, 72 h, read-out: IC50 Capan-1
[12] = HCT-116, 72 h, read-out: IC50 HCT-116
[13] = NCI-H460, 72 h, read-out: IC50 NCI-H460
[14] = DND41, 72 h, read-out: IC50 DND-41
[15] = HL-60, 72 h, read-out: IC50 HL-60
[16] = K562, 72 h, read-out: IC50 K-562
[17] = Z-138, 72 h, read-out: IC50 Z-138
[18] = CAPAN-1, read-out: IC50 Capan-1
[19] = HCT-116, read-out: IC50 HCT-116
[20] = NCI-H460, read-out: IC50 NCI-H460

Compound	IC50 [1, 10]	IC50 [2, 11]	IC50 [3, 12]	IC50 [4, 13]	IC50 [5, 14]	IC50 [6, 15]	IC50 [7, 16]	IC50 [8, 17]	IC50 ([1]; LN-229, read-out: IC50 LN-229)	IC50 ([5]; DND41, read-out: IC50 DND-41)	IC50 ([7]; K562, read-out: IC50 K-562)	IC50 ([8]; Z-138, read-out: IC50 Z-138)	IC50 [9]	Cytotoxicity against noncancerous cells in words [9]	CC50 (in vitro)	IC50 [2, 18]	IC50 [3, 19]	IC50 [4, 20]	IC50 ([6]; HL-60, read-out: IC50 HL-60)
CC(C)(C)OC(=O)Nc1ccc(Br)cc1C(=O)NCCCCNc1ccnc2cc(Cl)ccc12 [Compound 3, tert-Butyl {4-bromo-2-[[4-[(7-chloroquinolin-4-yl)amino]butyl]carbamoyl]phenyl}carbamate]	48.4 ± 20 µM	40.6 ± 4.2 µM	66.1 ± 30 µM	69.3 ± 30.7 µM	51.3 ± 4.4 µM	60.5 ± 17 µM	51.2 ± 9.3 µM	55.2 ± 9.2 µM	–	–	–	–	> 100 µM	no cytotoxicity against noncancerous cells	–	–	–	–	–
N#C[C@@]1(c2ccc3c(N)ncnn23)O[C@H](CO)[C@@H](O)[C@H]1O [GS-441524]	–	–	–	–	–	–	–	–	–	–	–	–	–	–	> 100 µM	–	–	–	–
COc1cc(NC(C)CCCNC(=O)c2ccc(Cl)cc2NC(=O)OC(C)(C)C)c2ncccc2c1 (stereo not drawn) [Compound 5, tert-Butyl {5-chloro-2-[[4-[(6-methoxyquinolin-8-yl)amino]pentyl]carbamoyl]phenyl}carbamate]	> 100 µM	> 100 µM	> 100 µM	> 100 µM	> 100 µM	> 100 µM	> 100 µM	> 100 µM	–	–	–	–	> 100 µM	–	–	–	–	–	–
Cc1nc(CNC(=O)c2ccc(Cl)cc2NC(=O)OC(C)(C)C)cc2c1[nH]c1ccccc12 [Compound 8, tert-Butyl {5-chloro-2-[[(1-methyl-9H-pyrido[3,4-b]indol-3-yl)methyl]carbamoyl]phenyl}carbamate]	20.8 ± 13.8 µM	6.5 ± 2.9 µM	28.9 ± 24.1 µM	8.3 ± 4.3 µM	32.1 ± 20.8 µM	6.7 ± 0.2 µM	29.1 ± 21.3 µM	8.2 ± 1.9 µM	–	–	–	–	7.1 ± 1.8 µM	–	–	–	–	–	–
COc1cc(NC(C)CCCNC(=O)c2cc(Br)ccc2NC(=O)OC(C)(C)C)c2ncccc2c1 (stereo not drawn) [Compound 6, tert-Butyl {4-bromo-2-[[4-[(6-methoxyquinolin-8-yl)amino]pentyl]carbamoyl]phenyl}carbamate]	> 100 µM	> 100 µM	> 100 µM	> 100 µM	> 100 µM	> 100 µM	> 100 µM	> 100 µM	–	–	–	–	> 100 µM	–	–	–	–	–	–
CN[C@@H]1C[C@H]2O[C@@](C)([C@@H]1OC)n1c3ccccc3c3c4c(c5c6ccccc6n2c5c31)C(=O)NC4 [STS, staurosporine, reference compound]	–	–	–	–	–	–	–	–	–	–	–	–	–	–	–	0.0382 ± 0.003 µM	0.0687 ± 0.003 µM	0.0384 ± 0.003 µM	0.0598 ± 0.003 µM
COc1cc(NC(C)CCCNC(=O)c2ccccc2NCc2ccccc2)c2ncccc2c1 (stereo not drawn) [Compound 4, 2-(Benzylamino)-N-{4-[(6-methoxyquinolin-8-yl)amino]pentyl}benzamide]	> 100 µM	> 100 µM	> 100 µM	> 100 µM	> 100 µM	> 100 µM	> 100 µM	> 100 µM	–	–	–	–	> 100 µM	–	–	–	–	–	–
Cc1nc(CNC(=O)c2ccccc2NCc2ccccc2)cc2c1[nH]c1ccccc12 [Compound 7, 2-(Benzylamino)-N-[(1-methyl-9H-pyrido[3,4-b]indol-3-yl)methyl]benzamide]	35.8 ± 9.3 µM	27.5 ± 8.1 µM	34.6 ± 6 µM	28.4 ± 4 µM	53.5 ± 6.7 µM	66.2 ± 18.3 µM	90.7 ± 18.5 µM	21 ± 10.1 µM	–	–	–	–	50.9 ± 2.7 µM	–	–	–	–	–	–
O=C(NCCCCNc1ccnc2cc(Cl)ccc12)c1ccccc1NCc1ccccc1 [Compound 1, 2-(Benzylamino)-N-{4-[(7-chloroquinolin-4-yl)amino]butyl}benzamide]	53.5 ± 12.2 µM	57.6 ± 14.6 µM	> 100 µM	> 100 µM	> 100 µM	> 100 µM	55.7 ± 10 µM	> 100 µM	–	–	–	–	8 ± 4.4 µM	–	–	–	–	–	–
CC(C)(C)OC(=O)Nc1cc(Cl)ccc1C(=O)NCCCCNc1ccnc2cc(Cl)ccc12 [Compound 2, tert-Butyl {5-chloro-2-[[4-[(7-chloroquinolin-4-yl)amino]butyl]carbamoyl]phenyl}carbamate]	30.1 ± 2.1 µM	20.4 ± 9 µM	32.4 ± 20 µM	21.2 ± 10 µM	46.2 ± 1.9 µM	41.5 ± 17 µM	54.5 ± 18.5 µM	28.6 ± 14.6 µM	–	–	–	–	> 100 µM	no cytotoxicity against noncancerous cells	–	–	–	–	–

Second part, led by results:

IC50 [1, 10]	IC50 [2, 11]	IC50 [3, 12]	IC50 [4, 13]	IC50 [5, 14]	IC50 [6, 15]	IC50 [7, 16]	IC50 [8, 17]	IC50 ([1]; LN-229, read-out: IC50 LN-229)	IC50 ([5]; DND41, read-out: IC50 DND-41)	IC50 ([7]; K562, read-out: IC50 K-562)	IC50 ([8]; Z-138, read-out: IC50 Z-138)	Compound	IC50 [9]	Cytotoxicity against noncancerous cells in words [9]	CC50 (in vitro)	IC50 [2, 18]	IC50 [3, 19]	IC50 [4, 20]	IC50 ([6]; HL-60, read-out: IC50 HL-60)
8.3 ± 3.1 µM	5.8 ± 3 µM	32.9 ± 7.9 µM	3.2 ± 1.8 µM	12.5 ± 6.9 µM	10.8 ± 3.3 µM	63.1 ± 36.9 µM	4.1 ± 1.8 µM	–	–	–	–	Cc1nc(CNC(=O)c2cc(Br)ccc2NC(=O)OC(C)(C)C)cc2c1[nH]c1ccccc12 [Compound 9, tert-Butyl {4-bromo-2-[[(1-methyl-9H-pyrido[3,4-b]indol-3-yl)methyl]carbamoyl]phenyl}carbamate]	7.5 ± 1 µM	–	–	–	–	–	–
44 ± 7.6 µM	56.3 ± 24.1 µM	55 ± 17.7 µM	43.8 ± 8.4 µM	> 100 µM	> 100 µM	> 100 µM	> 100 µM	–	–	–	–	Cc1nc(CNC(=O)c2ccc(Cl)cc2N)cc2c1[nH]c1ccccc12 [Compound 18, 2-Amino-4-chloro-N-[(1-methyl-9H-pyrido[3,4-b]indol-3-yl)methyl]benzamide]	> 100 µM	–	–	–	–	–	–
41 ± 0.3 µM	31.4 ± 1.9 µM	48.4 ± 3.8 µM	54.8 ± 5.9 µM	61.5 ± 2.1 µM	44 ± 8.4 µM	52 ± 5.3 µM	35.1 ± 4.5 µM	–	–	–	–	Cc1nc(CNC(=O)c2ccccc2N)cc2c1[nH]c1ccccc12 [Compound 17, 2-Amino-N-[(1-methyl-9H-pyrido[3,4-b]indol-3-yl)methyl]benzamide]	32.8 ± 3.3 µM	–	–	–	–	–	–
–	–	–	–	–	–	–	–	0.0018 ± 0.003 µM	0.0055 ± 0.003 µM	0.0089 ± 0.003 µM	0.0025 ± 0.003 µM	CC(=O)O[C@@]12CO[C@@H]1C[C@H](O)[C@@]1(C)C(=O)[C@H](O)C3=C(C)[C@@H](OC(=O)[C@H](O)[C@@H](NC(=O)OC(C)(C)C)c4ccccc4)C[C@@](O)([C@@H](OC(=O)c4ccccc4)[C@H]21)C3(C)C [DTX, docetaxel, reference compound]	–	–	–	0.01 ± 0.003 µM	0.0025 ± 0.003 µM	0.0271 ± 0.003 µM	0.0137 ± 0.003 µM
46.2 ± 7.5 µM	38.9 ± 5.8 µM	60.8 ± 31 µM	55 ± 5 µM	68.3 ± 12.2 µM	66.3 ± 34 µM	64.9 ± 4.9 µM	55.5 ± 12.1 µM	–	–	–	–	Cc1nc(CNC(=O)c2cc(Br)ccc2N)cc2c1[nH]c1ccccc12 [Compound 19, 2-Amino-5-bromo-N-[(1-methyl-9H-pyrido[3,4-b]indol-3-yl)methyl]benzamide]	82.6 ± 17.4 µM	–	–	–	–	–	–
> 100 µM	> 100 µM	> 100 µM	> 100 µM	> 100 µM	> 100 µM	> 100 µM	> 100 µM	–	–	–	–	COc1cc(NC(C)CCCNC(=O)c2ccc(Cl)cc2N)c2ncccc2c1 (stereo not drawn) [Compound 15, 2-Amino-4-chloro-N-{4-[(6-methoxyquinolin-8-yl)amino]pentyl}benzamide]	> 100 µM	–	–	–	–	–	–
